Measured values as given in patent publication US6727264B1 (Synaptic Pharmaceutical Corporation, priority 2001, dated 2004).

Molecular target: rat MCH-1 (Rattus norvegicus, UniProt P97639)
Assay: Radioligand binding assay at cloned rat MCH1 receptor ([3H] Compound A)
Parameters: host or cells: Peak rapid 293 (Peakr293) cells, transient calcium phosphate transfection, membranes
Conditions: cloned rat MCH1 receptor, membranes from Peakr293 cells, 0.08 nM [3H] Compound A; read-out: Ki (nM) rMCH1

Sequence of rat MCH-1 (P97639 whole entry): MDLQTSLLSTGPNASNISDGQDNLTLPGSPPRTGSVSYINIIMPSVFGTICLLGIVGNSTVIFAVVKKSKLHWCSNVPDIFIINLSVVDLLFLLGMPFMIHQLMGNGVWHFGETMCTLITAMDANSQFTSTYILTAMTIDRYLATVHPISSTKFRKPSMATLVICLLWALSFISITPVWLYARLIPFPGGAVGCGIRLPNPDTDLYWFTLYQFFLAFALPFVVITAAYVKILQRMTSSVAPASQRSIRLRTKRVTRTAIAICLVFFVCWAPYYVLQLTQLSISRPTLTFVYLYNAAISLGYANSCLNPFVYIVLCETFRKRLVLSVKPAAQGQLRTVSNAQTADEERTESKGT

Compound	Ki [nM]
CC(C)C(=O)Nc1cccc(C2CCN(CCC(Oc3ccc(Br)cc3)c3ccc(Cl)cc3)CC2)c1 (stereo not drawn) [Example 171]	3.7
CC(C)C(=O)Nc1cccc(C2CCN(CCC(Oc3ccc(Cl)cc3)c3ccc(Cl)cc3)CC2)c1 (stereo not drawn) [Example 172]	3
CC(C)C(=O)Nc1cccc(C2CCN(CCC(Oc3ccccc3)c3ccc(F)cc3)CC2)c1 (stereo not drawn) [Example 174]	17
CC(=O)c1ccccc1OC(CCN1CCC(c2cccc(NC(=O)C(C)C)c2)CC1)c1ccc(F)cc1 (stereo not drawn) [Example 175]	16.2
COc1ccc(C(CCN2CCC(c3cccc(NC(=O)C(C)C)c3)CC2)Oc2ccc(Cl)cc2)cc1 (stereo not drawn) [Example 178]	119
COc1ccc(C(CCN2CCC(c3cccc(NC(=O)C(C)C)c3)CC2)Oc2cccc(C(C)=O)c2)cc1 (stereo not drawn) [Example 179]	82.3
COc1ccc(C(CCN2CCC(c3cccc(NC(=O)C(C)C)c3)CC2)Oc2ccc(Br)cc2)cc1 (stereo not drawn) [Example 181]	91.9
COc1ccc(C(CCN2CCC(c3cccc(NC(=O)C(C)C)c3)CC2)Oc2ccc(F)cc2)cc1 (stereo not drawn) [Example 184]	105
CC(C)C(=O)Nc1cccc(C2CCN(CCC(Oc3ccc(C(F)(F)F)cc3)c3ccc(Cl)cc3)CC2)c1 (stereo not drawn) [Example 186]	4.9
CCCCOc1ccc2ccccc2c1CN1CCC(c2cccc(NC(=O)C(C)C)c2)CC1 [Example 189]	438
CC(C)C(=O)Nc1cccc(C2CCN(Cc3c(OCc4ccc(C#N)cc4)ccc4ccccc34)CC2)c1 [Example 190]	436
COc1ccc(Oc2ccc(CN3CCC(c4cccc(NC(=O)C(C)C)c4)CC3)cc2)cc1 [Example 196]	35.2
CC(C)C(=O)Nc1cccc(C2CCN(C(C)c3csc(-c4ccccc4)n3)CC2)c1 (stereo not drawn) [Example 201]	996
CC(C)C(=O)Nc1cccc(C2CCN(Cc3c[nH]c(-c4ccccc4)n3)CC2)c1 [Example 203]	79.6
CC(C)C(=O)Nc1cccc(C2CCN(Cc3c(Br)cnn3Cc3ccc(Cl)cc3)CC2)c1 [Example 204]	39.8
CC(C)C(=O)Nc1cccc(C2CCN(Cc3cccc(Oc4ccccc4)c3)CC2)c1 [Example 205]	28
CC(C)C(=O)Nc1cccc(C2CCN(Cc3cccc(Oc4cc(Cl)cc(Cl)c4)c3)CC2)c1 [Example 207, N-(3-{1-[3-(3,5-dichlorophenoxy)benzyl]-4-piperidinyl}phenyl)-2-methylpropanamide]	137

Compound	Ki [nM]
CC(C)C(=O)Nc1cccc(C2CCN(Cc3cccc(Oc4ccc(C(C)(C)C)cc4)c3)CC2)c1 [Example 213]	519
Cc1csc2sc(CN3CCC(c4cccc(NC(=O)C(C)C)c4)CC3)c(C)c12 [Example 215, N-(3-{1-[(3,4- DIMETHYLTHIENO[2,3-B]THIEN-2-YL)METHYL]-4-PIPERIDINYL}PHENYL)-2-METHYLPROPANAMIDE]	283
CC(C)C(=O)Nc1cccc(C2CCN(Cc3ccc(-n4cncn4)cc3)CC2)c1 [Example 217]	300
CC(C)C(=O)Nc1cccc(C2CCN(Cc3ccc(-c4ccc(C(F)(F)F)cc4Cl)o3)CC2)c1 [Example 220]	159
CCOC(=O)c1c(CN2CCC(c3cccc(NC(=O)C(C)C)c3)CC2)c(C)n(-c2ccccc2)c1C [Example 221, ETHYL 4-({4-[3-(ISOBUTYRYLAMINO)PHENYL]-1-PIPERIDINYL}METHYL)-2,5-DIMETHYL-1-PHENYL-1H-PYRROLE-3-CARBOXYLATE]	546
CCOC(=O)c1cc(-c2ccc(Cl)cc2)oc1CN1CCC(c2cccc(NC(=O)C(C)C)c2)CC1 [Example 222, ETHYL 5-(4-CHLOROPHENYL)-2-({4-[3-(ISOBUTYRYLAMINO)PHENYL]-1-PIPERIDINYL}METHYL)-3-FUROATE]	152
CC(C)C(=O)Nc1cccc(C2CCN(Cc3ccc(Oc4ccccc4)nc3)CC2)c1 [Example 224]	48
CC(C)C(=O)Nc1cccc(C2CCN(Cc3ccc(-c4cc(C(F)(F)F)nn4C)s3)CC2)c1 [Example 226]	239
CC(C)C(=O)Nc1cccc(C2CCN(Cc3ccc(-c4nc(C(C)(C)C)cs4)cc3)CC2)c1 [Example 229]	885
CC(C)C(=O)Nc1cccc(C2CCN(Cc3ccc(-c4cccs4)s3)CC2)c1 [Example 236]	97.7
CC(C)C(=O)Nc1cccc(C2CCN(Cc3ccc(-c4cc(C(F)(F)F)n(C)n4)s3)CC2)c1 [Example 238]	65.9
CC(C)C(=O)Nc1cccc(C2CCN(Cc3cc4ccccc4s3)CC2)c1 [Example 253]	362
CC(C)C(=O)Nc1cccc(C2CCN(Cc3ccc(-c4cccc(OC(F)(F)F)c4)o3)CC2)c1 [Example 254]	401
CC(C)C(=O)Nc1cccc(C2CCN(Cc3ccc4ccccc4n3)CC2)c1 [Example 255]	590
CC(C)C(=O)Nc1cccc(C2CCN(Cc3ccc(-n4ccnc4)cc3)CC2)c1 [Example 256]	321
CC(C)C(=O)Nc1cccc(C2CCN(Cc3ccc(-c4ccccc4)cc3)CC2)c1 [Example 260]	77.7
Cc1ccc(C(=O)CCCN2CCC(c3cccc(NC(=O)C(C)C)n3)CC2)cc1C [Example 264]	54.7

More lines, in order of falling Ki, values ahead:

Ki [nM]	Compound
841	Cc1c(CN2CCC(c3cccc(NC(=O)C(C)C)c3)CC2)c(=O)n(-c2ccccc2)n1C [Example 228]
818	CC(C)C(=O)Nc1cccc(C2CCN(Cc3c[nH]nc3-c3ccc(C(F)(F)F)cc3)CC2)c1 [Example 216]
649	CC(C)C(=O)Nc1cccc(C2CCN(Cc3c(OCC#N)ccc4ccccc34)CC2)c1 [Example 191]
596	Cc1nc(-c2ccccc2)ncc1CN1CCC(c2cccc(NC(=O)C(C)C)c2)CC1 [Example 231]
531	CC(C)CCOc1ccc2ccccc2c1CN1CCC(c2cccc(NC(=O)C(C)C)c2)CC1 [Example 188]
431	CC(C)C(=O)Nc1cccc(C2CCN(Cc3ccc4nsnc4c3)CC2)c1 [Example 232]
412	CC(C)C(=O)Nc1cccc(C2CCN(Cc3c[nH]nc3-c3cccs3)CC2)c1 [Example 235]
318	CC(C)C(=O)Nc1cccc(C2CCN(Cc3ccc4c(c3)OCCO4)CC2)c1 [Example 223]
262	CC(C)C(=O)Nc1cccc(C2CCN(Cc3cn(S(=O)(=O)c4ccccc4)c4ccccc34)CC2)c1 [Example 227]
214	CC(C)C(=O)Nc1cccc(C2CCN(Cc3ccc(-c4ccccn4)s3)CC2)c1 [Example 225]
156	CC(C)C(=O)Nc1cccc(C2CCN(Cc3ccc(-c4csnn4)cc3)CC2)c1 [Example 263]
155	Cc1nn(-c2ccccc2)c(Cl)c1CN1CCC(c2cccc(NC(=O)C(C)C)c2)CC1 [Example 202]
126	Cc1c(CN2CCC(c3cccc(NC(=O)C(C)C)c3)CC2)cnn1-c1ccccc1 [Example 218]
125	CC(C)C(=O)Nc1cccc(C2CCN(Cc3ccc(-c4ccccc4)s3)CC2)c1 [Example 233]
116	CC(C)C(=O)Nc1cccc(C2CCN(Cc3ccc4c(c3)OCCCO4)CC2)c1 [Example 234]
112	COc1ccc(C(CCN2CCC(c3cccc(NC(=O)C(C)C)c3)CC2)Oc2ccccc2)cc1 (stereo not drawn) [Example 173, N-(3-{1-[3-(4- METHOXYPHENYL)-3-PHENOXYPROPYL]-4-PIPERIDINYL}PHENYL)-2-METHYLPROPANAMIDE]
111	CC(C)C(=O)Nc1cccc(C2CCN(Cc3cccc(N(C)C)c3)CC2)c1 [Example 211]
106	CC(C)CCOc1ccc(CN2CCC(c3cccc(NC(=O)C(C)C)c3)CC2)c2ccccc12 [Example 195]
101	COc1ccc(C(CCN2CCC(c3cccc(NC(=O)C(C)C)c3)CC2)Oc2ccc(C(F)(F)F)cc2)cc1 (stereo not drawn) [Example 182]

Ki [nM]	Compound
80.5	CC(C)C(=O)Nc1cccc(C2CCN(Cc3c(OCc4cccc(Cl)c4)ccc4ccccc34)CC2)c1 [Example 192]
68.8	CC(C)C(=O)Nc1cccc(C2CCN(Cc3ccc(N4CCOCC4)c([N+](=O)[O-])c3)CC2)c1 [Example 219]
64.8	CC(C)C(=O)Nc1cccc(C2CCN(Cc3cccc(Oc4cccc(C(F)(F)F)c4)c3)CC2)c1 [Example 209]
64.1	Cc1ccc(Sc2ccc(CN3CCC(c4cccc(NC(=O)C(C)C)c4)CC3)cc2[N+](=O)[O-])cc1 [Example 262]
63.1	CCCOc1ccc(CN2CCC(c3cccc(NC(=O)C(C)C)c3)CC2)c2ccccc12 [Example 197]
56.3	CC(C)C(=O)Nc1cccc(C2CCN(Cc3ccc(N4CCCCC4)c([N+](=O)[O-])c3)CC2)c1 [Example 214]
43	COc1ccc(Oc2cccc(CN3CCC(c4cccc(NC(=O)C(C)C)c4)CC3)c2)cc1 [Example 212]
37.2	CC(C)C(=O)Nc1cccc(C2CCN(Cc3ccc4c(c3)Cc3ccccc3-4)CC2)c1 [Example 257]
30.8	Cc1ccc(Oc2cccc(CN3CCC(c4cccc(NC(=O)C(C)C)c4)CC3)c2)cc1 [Example 208]
23.3	CC(C)C(=O)Nc1cccc(C2CCN(Cc3cccc(Oc4ccc(Cl)cc4)c3)CC2)c1 [Example 210]
20.6	COc1ccc(C(CCN2CCC(c3cccc(NC(=O)C(C)C)c3)CC2)Oc2ccccc2C(C)=O)cc1 (stereo not drawn) [Example 185]
17.7	CC(C)C(=O)Nc1cccc(C2CCN(Cc3cccc(Oc4ccc(Cl)c(Cl)c4)c3)CC2)c1 [Example 206]
15.6	CC(=O)c1cccc(O[C@@H](CCN2CCC(c3cc(NC(=O)C(C)C)ccc3C)CC2)c2ccccc2)c1 [Example 187]
15.4	CC(C)C(=O)Nc1cccc(C2CCN(Cc3ccc(Oc4ccccc4)cc3)CC2)c1 [Example 259]
11.8	CC(=O)c1cccc(OC(CCN2CCC(c3cccc(NC(=O)C(C)C)c3)CC2)c2ccc(F)cc2)c1 (stereo not drawn) [Example 176]
9.7	CC(C)C(=O)Nc1cccc(C2CCN(CCC(Oc3ccccc3)c3ccc(Cl)cc3)CC2)c1 (stereo not drawn) [Example 180]
6.8	COc1ccc(OC(CCN2CCC(c3cccc(NC(=O)C(C)C)c3)CC2)c2ccc(F)cc2)cc1 (stereo not drawn) [Example 177]
6.5	CCCCN(CCCC)c1ccc(CN2CCC(c3cccc(NC(=O)C(C)C)c3)CC2)cc1 [Example 261]
4	CC(C)C(=O)Nc1cccc(C2CCN(CCC(Oc3ccc(F)cc3)c3ccc(Cl)cc3)CC2)c1 (stereo not drawn) [Example 183]
